Experimental data taken from patent publication EP1247803A2, “Indolinone compounds suitable for modulation of protein kinases” (Sugen, Inc., priority 1996, dated 1998).

target: T1, FLK-1 receptor (Mus musculus, UniProt P35918); test: FLK-1 ELISA (kinase activity of the FLK-1 receptor in FLK-1/NIH3T3 cells, VEGF stimulated); format: cell-based
T1 construct: expressed in transfected cells; host or cells: NIH3T3 C7#3
How it was run: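 An ELISA using affinity-purified rabbit anti-FLK-1 antiserum on anti-rabbit IgG-coated plates measured VEGF-stimulated FLK-1 kinase activity. NIH3T3 C7#3 cells carrying FLK-1 were serum-starved (0.1% FBS) overnight, then exposed to compound (final 1:200 dilution, 0.5% DMSO) for two hours at 37 °C.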

T1 sequence (P35918 20-1345): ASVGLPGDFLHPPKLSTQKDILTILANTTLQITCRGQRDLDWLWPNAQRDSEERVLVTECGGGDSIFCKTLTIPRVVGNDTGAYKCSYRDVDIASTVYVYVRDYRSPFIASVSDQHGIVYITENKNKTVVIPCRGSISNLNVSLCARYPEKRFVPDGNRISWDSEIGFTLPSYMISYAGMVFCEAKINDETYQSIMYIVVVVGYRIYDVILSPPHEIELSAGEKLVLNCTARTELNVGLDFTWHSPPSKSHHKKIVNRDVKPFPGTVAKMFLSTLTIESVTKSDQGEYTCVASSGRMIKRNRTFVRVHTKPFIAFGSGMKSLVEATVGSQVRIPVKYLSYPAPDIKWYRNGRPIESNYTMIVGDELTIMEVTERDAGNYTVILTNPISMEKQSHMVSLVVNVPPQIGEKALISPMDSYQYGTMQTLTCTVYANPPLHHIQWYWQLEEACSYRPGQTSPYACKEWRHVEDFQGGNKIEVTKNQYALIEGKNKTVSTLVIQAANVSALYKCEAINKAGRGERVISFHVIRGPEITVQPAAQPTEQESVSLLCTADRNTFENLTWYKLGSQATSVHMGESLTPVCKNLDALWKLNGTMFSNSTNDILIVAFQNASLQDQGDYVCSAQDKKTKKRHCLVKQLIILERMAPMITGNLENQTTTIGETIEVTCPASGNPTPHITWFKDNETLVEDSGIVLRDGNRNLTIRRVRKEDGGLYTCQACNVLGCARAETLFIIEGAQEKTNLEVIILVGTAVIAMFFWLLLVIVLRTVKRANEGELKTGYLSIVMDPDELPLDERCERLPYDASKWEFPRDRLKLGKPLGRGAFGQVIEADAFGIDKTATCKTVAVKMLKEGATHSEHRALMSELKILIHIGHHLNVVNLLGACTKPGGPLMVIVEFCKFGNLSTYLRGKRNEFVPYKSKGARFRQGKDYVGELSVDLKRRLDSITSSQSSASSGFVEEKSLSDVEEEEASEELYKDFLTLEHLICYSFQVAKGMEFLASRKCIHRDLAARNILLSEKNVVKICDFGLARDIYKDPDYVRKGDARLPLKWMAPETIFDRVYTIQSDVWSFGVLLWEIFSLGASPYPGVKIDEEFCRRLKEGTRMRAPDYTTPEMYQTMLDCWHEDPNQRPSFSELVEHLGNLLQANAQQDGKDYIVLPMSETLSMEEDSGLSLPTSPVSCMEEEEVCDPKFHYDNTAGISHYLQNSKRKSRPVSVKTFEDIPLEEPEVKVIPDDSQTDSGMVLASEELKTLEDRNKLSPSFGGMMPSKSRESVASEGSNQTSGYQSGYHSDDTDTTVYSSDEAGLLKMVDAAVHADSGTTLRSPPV

SMILES	Fik Kinase %Inhibition
O=C1Nc2c(Br)cc(Br)cc2C1=Cc1ccc(F)cc1 [10717/A05]	-2.6%
Cc1ccc(C=C2C(=O)Nc3ccc(S(=O)(=O)N4CCOCC4)cc32)s1 [10717/F07]	2.0%
O=C1Nc2ccc(S(=O)(=O)N3CCOCC3)cc2C1=Cc1ccc(Br)cc1 [10717/F08]	-0.7%
O=C1Nc2ccc(S(=O)(=O)N3CCOCC3)cc2C1=Cc1ccc[nH]1 [10717/F09]	-13.3%
COc1cccc(O)c1C=C1C(=O)Nc2ccc(S(=O)(=O)N3CCOCC3)cc21 [10717/F10]	-4,4%
Cc1[nH]c(C=C2C(=O)Nc3ccc(S(=O)(=O)N4CCOCC4)cc32)c(Br)c1Br [10717/F11]	1.4%
CCOc1ccccc1C=C1C(=O)Nc2ccc(CCCl)cc21 [10717/G02]	14.9%
O=C1Nc2ccc(CCCl)cc2C1=Cc1cccs1 [10717/G03]	1.8%
Cc1c(Br)ccc2c1C(=Cc1sccc1Br)C(=O)N2 [10725/C02]	7.0%
COc1ccc(Br)c(C=C2C(=O)Nc3ccc(Br)c(C)c32)c1O [10725/C03]	2.0%
Cc1ccc(C=C2C(=O)Nc3ccc(Br)c(C)c32)o1 [10725/C04]	-27.3%
Cc1cc(C=C2C(=O)Nc3ccc(Br)c(C)c32)[nH]n1 [10725/C05]	-37.0%
COc1cc(C)cc(O)c1C=C1C(=O)Nc2ccc(Br)c(C)c21 [10725/C06]	-9.3%
Cc1c(Br)ccc2c1C(=Cc1ccc(N3CCN(C=O)CC3)cc1)C(=O)N2 [10725/C07]	65.0%
Cc1c(Br)ccc2c1C(=Cc1ccc(N3CCOCC3)cc1)C(=O)N2 [10725/C08]	-8.7%
COC(=O)Cc1c(Cl)[nH]c(C=C2C(=O)Nc3ccc(Br)c(C)c32)c1C(=O)OC [10725/C09]	11.2%
Cc1c(Br)ccc2c1C(=Cc1c(Br)cnn1-c1ccc(Cl)cc1)C(=O)N2 [10725/C10]	8.7%
Cc1c(Br)ccc2c1C(=Cc1c[nH]cn1)C(=O)N2 [10725/C11]	104.5%
CNS(=O)(=O)c1ccc2c(c1)C(=Cc1sccc1Br)C(=O)N2 [10725/D02]	-3.6%
CNS(=O)(=O)c1ccc2c(c1)C(=Cc1c(Br)ccc(OC)c1O)C(=O)N2 [10725/D03]	-11.3%
CNS(=O)(=O)c1ccc2c(c1)C(=Cc1ccc(C)o1)C(=O)N2 [10725/D04]	3.6%
CNS(=O)(=O)c1ccc2c(c1)C(=Cc1cc(C)n[nH]1)C(=O)N2 [10725/D05]	2.3%
CNS(=O)(=O)c1ccc2c(c1)C(=Cc1c(O)cc(C)cc1OC)C(=O)N2 [10725/D06]	-0.5%
CNS(=O)(=O)c1ccc2c(c1)C(=Cc1ccc(N3CCN(C=O)CC3)cc1)C(=O)N2 [10725/D07]	2.6%
CNS(=O)(=O)c1ccc2c(c1)C(=Cc1ccc(N3CCOCC3)cc1)C(=O)N2 [10725/D08]	1.8%
CNS(=O)(=O)c1ccc2c(c1)C(=Cc1[nH]c(Cl)c(CC(=O)OC)c1C(=O)OC)C(=O)N2 [10725/D09]	-0.9%
CNS(=O)(=O)c1ccc2c(c1)C(=Cc1c(Br)cnn1-c1ccc(Cl)cc1)C(=O)N2 [10725/D10]	9.0%

SMILES	Fik Kinase %Inhibition
CNS(=O)(=O)c1ccc2c(c1)C(=Cc1c[nH]cn1)C(=O)N2 [10725/D11]	13.6%
O=C1Nc2ccc(S(=O)(=O)Nc3ccc(C(F)(F)F)cc3)cc2C1=Cc1sccc1Br [10725/E02]	-5.6%
COc1ccc(Br)c(C=C2C(=O)Nc3ccc(S(=O)(=O)Nc4ccc(C(F)(F)F)cc4)cc32)c1O [10725/E03]	-0.8%
Cc1ccc(C=C2C(=O)Nc3ccc(S(=O)(=O)Nc4ccc(C(F)(F)F)cc4)cc32)o1 [10725/E04]	-38.8%
Cc1cc(C=C2C(=O)Nc3ccc(S(=O)(=O)Nc4ccc(C(F)(F)F)cc4)cc32)[nH]n1 [10725/E05]	-0.2%
COc1cc(C)cc(O)c1C=C1C(=O)Nc2ccc(S(=O)(=O)Nc3ccc(C(F)(F)F)cc3)cc21 [10725/E06]	-1.8%
O=CN1CCN(c2ccc(C=C3C(=O)Nc4ccc(S(=O)(=O)Nc5ccc(C(F)(F)F)cc5)cc43)cc2)CC1 [10725/E07]	9.7%
O=C1Nc2ccc(S(=O)(=O)Nc3ccc(C(F)(F)F)cc3)cc2C1=Cc1ccc(N2CCOCC2)cc1 [10725/E08]	12.1%
COC(=O)Cc1c(Cl)[nH]c(C=C2C(=O)Nc3ccc(S(=O)(=O)Nc4ccc(C(F)(F)F)cc4)cc32)c1C(=O)OC [10725/E09]	7.0%
O=C1Nc2ccc(S(=O)(=O)Nc3ccc(C(F)(F)F)cc3)cc2C1=Cc1c(Br)cnn1-c1ccc(Cl)cc1 [10725/E10]	9.3%
O=C1Nc2ccc(S(=O)(=O)Nc3ccc(C(F)(F)F)cc3)cc2C1=Cc1c[nH]cn1 [10725/E11]	18.9%
O=C1Nc2ccc(S(=O)(=O)N3CCOCC3)cc2C1=Cc1sccc1Br [10725/F02]	5.8%
COc1ccc(Br)c(C=C2C(=O)Nc3ccc(S(=O)(=O)N4CCOCC4)cc32)c1O [10725/F03]	4.3%
Cc1ccc(C=C2C(=O)Nc3ccc(S(=O)(=O)N4CCOCC4)cc32)o1 [10725/F04]	-6.9%
Cc1cc(C=C2C(=O)Nc3ccc(S(=O)(=O)N4CCOCC4)cc32)[nH]n1 [10725/F05]	-0.8%
COc1cc(C)cc(O)c1C=C1C(=O)Nc2ccc(S(=O)(=O)N3CCOCC3)cc21 [10725/F06]	-1.0%
O=CN1CCN(c2ccc(C=C3C(=O)Nc4ccc(S(=O)(=O)N5CCOCC5)cc43)cc2)CC1 [10725/F07]	6.9%
O=C1Nc2ccc(S(=O)(=O)N3CCOCC3)cc2C1=Cc1ccc(N2CCOCC2)cc1 [10725/F08]	8.9%
COC(=O)Cc1c(Cl)[nH]c(C=C2C(=O)Nc3ccc(S(=O)(=O)N4CCOCC4)cc32)c1C(=O)OC [10725/F09]	6.8%
O=C1Nc2ccc(S(=O)(=O)N3CCOCC3)cc2C1=Cc1c(Br)cnn1-c1ccc(Cl)cc1 [10725/F10]	4.8%
O=C1Nc2ccc(S(=O)(=O)N3CCOCC3)cc2C1=Cc1c[nH]cn1 [10725/F11]	9.9%
O=C1Nc2ccc(CCCl)cc2C1=Cc1sccc1Br [10725/G02]	-3.7%
COc1ccc(Br)c(C=C2C(=O)Nc3ccc(CCCl)cc32)c1O [10725/G03]	-6.9%
Cc1ccc(C=C2C(=O)Nc3ccc(CCCl)cc32)o1 [10725/G04]	6.1%
Cc1cc(C=C2C(=O)Nc3ccc(CCCl)cc32)[nH]n1 [10725/G05]	-18.3%
COc1cc(C)cc(O)c1C=C1C(=O)Nc2ccc(CCCl)cc21 [10725/G06]	21.7%
O=CN1CCN(c2ccc(C=C3C(=O)Nc4ccc(CCCl)cc43)cc2)CC1 [10725/G07]	4.8%

SMILES	Fik Kinase %Inhibition
O=C1Nc2ccc(CCCl)cc2C1=Cc1ccc(N2CCOCC2)cc1 [10725/G08]	-14.8%
COC(=O)Cc1c(Cl)[nH]c(C=C2C(=O)Nc3ccc(CCCl)cc32)c1C(=O)OC [10725/G09]	15.2%
O=C1Nc2ccc(CCCl)cc2C1=Cc1c(Br)cnn1-c1ccc(Cl)cc1 [10725/G10]	11.1%
O=C1Nc2ccc(CCCl)cc2C1=Cc1c[nH]cn1 [10725/G11]	-28.0%
CCOC(=O)c1[nH]c(C=C2C(=O)Nc3c(Br)cc(Br)cc32)c(C(=O)OC)c1C [10726/A03]	-2.6%
Cc1cc(C=C2C(=O)Nc3c(Br)cc(Br)cc32)cc(C(C)(C)C)c1O [10726/A04]	7.6%
O=C1Nc2c(Br)cc(Br)cc2C1=Cc1ccc(Br)o1 [10726/A05]	-7.1%
Cc1cn(C)cc1C=C1C(=O)Nc2c(Br)cc(Br)cc21 [10726/A06]	-4.6%
O=C1Nc2c(Br)cc(Br)cc2C1=Cc1cc(O)c2c(c1O)CCCC2 [10726/A07]	-72.3%
O=C1Nc2ccc(F)cc2C1=C1C(=O)Nc2c(Br)cc(Br)cc21 [10726/A08]	-4.0%
O=C1Nc2ccccc2C1=C1C(=O)Nc2c(Br)cc(Br)cc21 [10726/A09]	-4.5%
CCc1ccc(C=C2C(=O)Nc3c(Br)cc(Br)cc32)s1 [10726/A10]	3.7%
COc1ccc(C=C2C(=O)Nc3c(Br)cc(Br)cc32)cc1 [10726/A11]	0.5%
CCOC(=O)c1[nH]c(C=C2C(=O)Nc3ccc(I)cc32)c(C(=O)OC)c1C [10726/B03]	11.1%
Cc1cc(C=C2C(=O)Nc3ccc(I)cc32)cc(C(C)(C)C)c1O [10726/B04]	16.8%
O=C1Nc2ccc(I)cc2C1=Cc1ccc(Br)o1 [10726/B05]	13.2%
Cc1cn(C)cc1C=C1C(=O)Nc2ccc(I)cc21 [10726/B06]	11.3%
O=C1Nc2ccc(I)cc2C1=Cc1cc(O)c2c(c1O)CCCC2 [10726/B07]	-36.5%
O=C1Nc2ccc(F)cc2C1=C1C(=O)Nc2ccc(I)cc21 [10726/B08]	12.2%
CCc1ccc(C=C2C(=O)Nc3ccc(I)cc32)s1 [10726/B10]	3.7%
COc1ccc(C=C2C(=O)Nc3ccc(I)cc32)cc1 [10726/B11]	7.4%
CCOC(=O)c1[nH]c(C=C2C(=O)Nc3ccc(Br)c(C)c32)c(C(=O)OC)c1C [10726/C03]	24.9%
Cc1cc(C=C2C(=O)Nc3ccc(Br)c(C)c32)cc(C(C)(C)C)c1O [10726/C04]	12.3%
Cc1c(Br)ccc2c1C(=Cc1ccc(Br)o1)C(=O)N2 [10726/C05]	4.0%
Cc1cn(C)cc1C=C1C(=O)Nc2ccc(Br)c(C)c21 [10726/C06]	23.8%
